Consider four molecules from patent publication US12134788B2, “Engineered prephenate dehydrogenases and arogenate dehydrogenases and methods of using the same” (Wisconsin Alumni Research Foundation, priority 2017, dated 2024).

Where “and” joins values, the source holds several entries; their conditions need not be identical. Identical values can stand only once. Entries after “also recorded” stand apart in the source; their conditions may differ.

In experiment [1] the target is T1, Medicago truncatula MtPDH variant C220D, SEQ ID NO: 1 (Medicago truncatula, UniProt A0A0A0R205, C220D).
T1 sequence (A0A0A0R205 1-268 C220D): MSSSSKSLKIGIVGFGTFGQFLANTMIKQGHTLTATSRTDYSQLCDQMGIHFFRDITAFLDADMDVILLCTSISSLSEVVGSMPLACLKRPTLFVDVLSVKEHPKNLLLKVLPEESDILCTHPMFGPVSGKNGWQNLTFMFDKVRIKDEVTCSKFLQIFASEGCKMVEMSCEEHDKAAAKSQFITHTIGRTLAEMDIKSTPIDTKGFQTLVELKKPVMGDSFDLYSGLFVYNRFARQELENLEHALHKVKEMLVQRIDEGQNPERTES
Description: ADH and PDH assay: steady-state kinetics and Tyr inhibition, MtPDH C220D. The settings on record: compared to wild-type MtPDH. The format is biochemical. On the procedure:
(§1) Kinetic parameters of purified recombinant proteins were determined from assays conducted at varying arogenate (19.5 μM-5 mM) and prephenate concentration (23.4 μM-6 mM). Standard assay conditions were 25 mM HEPES pH 7.6, 50 mM KCl and 10% (v/v) ethylene glycol, and 0.5 mM NADP^+ with varied substrate, concentrations. Reactions were initiated by addition of enzyme and incubated at 37° C. monitored every 10-15 seconds at […] using a microplate reader (Tecan Genios). Kinetic parameters were determined by fitting initial velocity data to the Michaelis-Menten equation using the Origin software (OriginLab).
(§2) Arogenate was prepared by enzymatic conversion of prephenate (Sigma-Aldrich) as previously reported^56. For Tyr inhibition assays, Tyr was dissolved in a slightly basic solution (0.025 N NaOH) due to solubility issues, thus the concentration of lysis buffer was increased to 500 mM HEPES final concentration to buffer against the changes by addition of Tyr in the reaction. Reactions containing varying amounts of Tyr (10 μM-8 mM) with 0.5 mM NADP^+ and either 1 mM arogenate or 0.8 mM prephenate were monitored as above.

The target in experiment [2] is T2, MtncADH (Mt5g083530), Medicago truncatula noncanonical arogenate dehydrogenase, wild type (Medicago truncatula, UniProt A0A217FAR3).
T2 construct: wild type
T2 sequence (A0A217FAR3 1-266): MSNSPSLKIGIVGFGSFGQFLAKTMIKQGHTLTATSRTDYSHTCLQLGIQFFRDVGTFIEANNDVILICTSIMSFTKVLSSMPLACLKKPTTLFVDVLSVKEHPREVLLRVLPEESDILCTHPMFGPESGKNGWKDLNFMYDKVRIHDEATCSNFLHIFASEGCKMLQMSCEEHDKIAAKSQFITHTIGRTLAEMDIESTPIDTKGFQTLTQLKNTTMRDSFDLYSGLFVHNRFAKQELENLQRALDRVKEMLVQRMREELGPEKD
Description: ADH and PDH assay: steady-state kinetics and Tyr inhibition, MtncADH wild type. It counts as biochemical. The conditions noted are these: kcat/Km. On the procedure: as §1, §2

Experiment [3] relates to Methanosaeta harundinacea MhTyrAp variant Q227E. Description: Kinetic analysis of MhTyrAp Q227E mutant. The format is biochemical. On the procedure: FIGS. 14A-14B show a kinetic analysis of MhTyrAp wild-type and Q227E mutant enzymes. Kinetic analysis was performed with MhTyrAp wild-type (filled circle) and Q227E mutant (open square) enzymes using various concentrations of prephenate (FIG. 14A) and arogenate (FIG. 14B). Initial velocity values at each substrate concentration were fit to the Michaelis-Menten equation using Origin software. Kinetic analyses were conducted for MhTyrA wild-type using 3.41 μg of purified recombinant enzyme, and 4.56 μg and 2.28 μg of purified recombinant Q227E using prephenate and arogenate, respectively.
(§3) ADH and PDH assays were performed using purified recombinant enzymes for SsTyrA and MhTyrA Wt and Q227E mutant, while the E. coli cell lysate was used for OiTyrA as expression and purification of this enzyme was unsuccessful. Reactions contained 0.8 mM substrate (arogenate or prephenate) and 0.8 mM cofactor (NADP+ or NAD+) together with reaction buffer (25 mM HEPES pH 7.6, 50 mM KCl, 10% (v/v) ethylene glycol). For OiTyrA assays containing cell lysates, reactions were incubated for 45 minutes and analyzed using HPLC as previously reported (Schenck et al., 2015). For pure enzymes, reactions were monitored every 10-15 seconds for reduced cofactor at A340 nm using a microplate reader (Tecan Genios). Kinetic parameters of purified recombinant enzymes were determined from assays containing varying concentrations of arogenate (39.1 μM-5 mM) or prephenate (39.1 μM-5 mM) substrate and monitored 10-15 seconds for reduced cofactor at A340 nm using a microplate reader (Tecan Genios). Kinetic parameters were determined by fitting initial velocity data to the Michaelis-Menten equation using Origin software (OriginLab) from technical replicate assays (n=3). Arogenate substrate was prepared by enzymatic conversion of prephenate (Sigma-Aldrich). All enzyme assays were conducted at a reaction time and protein concentration that were in the linear range and proportional to reaction velocity.

Experiment [4] deals with Peanut PDH/ADH (AipaensisVYE8T), Arachis ipaensis, wild type. Description: ADH and PDH assay: steady-state kinetics and Tyr inhibition, peanut PDH/ADH. The format is biochemical. On the procedure:
as §1, §2

The target in experiment [5] is T3, GmncADH (Gm14g05990), soybean (Glycine max) noncanonical arogenate dehydrogenase, wild type (Glycine max, UniProt I1M7P5).
T3 construct: wild type
T3 sequence (I1M7P5 1-266): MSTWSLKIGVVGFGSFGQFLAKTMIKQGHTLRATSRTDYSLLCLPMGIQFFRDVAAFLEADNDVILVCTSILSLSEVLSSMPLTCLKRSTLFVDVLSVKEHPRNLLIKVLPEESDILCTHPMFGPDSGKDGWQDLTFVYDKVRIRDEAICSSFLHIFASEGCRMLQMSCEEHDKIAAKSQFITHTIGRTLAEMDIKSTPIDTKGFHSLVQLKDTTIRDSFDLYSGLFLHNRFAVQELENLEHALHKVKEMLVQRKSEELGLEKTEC
Description: ADH and PDH assay: steady-state kinetics and Tyr inhibition, GmncADH wild type. The format is biochemical. The conditions noted are these: 0.5 mM NADP^+, pH 7.6, 37° C. On the procedure:
as §1, §2

In experiment [6] the target is T4, Glycine max GmncADH variant D218N (Glycine max, UniProt I1M7P5, D218N).
T4 construct: D218N by site-directed mutagenesis
Description: ADH and PDH assay: steady-state kinetics and Tyr inhibition, GmncADH D218N. It counts as biochemical, Glycine max (soybean). The settings on record: versus wild-type GmncADH. On the procedure:
as §1, §2

The target in experiment [7] is T5, Glycine max GmPDH1 variant N222D, SEQ ID NO: 2 (Glycine max, UniProt I1MYY4, N222D).
T5 sequence (I1MYY4 1-271 N222D): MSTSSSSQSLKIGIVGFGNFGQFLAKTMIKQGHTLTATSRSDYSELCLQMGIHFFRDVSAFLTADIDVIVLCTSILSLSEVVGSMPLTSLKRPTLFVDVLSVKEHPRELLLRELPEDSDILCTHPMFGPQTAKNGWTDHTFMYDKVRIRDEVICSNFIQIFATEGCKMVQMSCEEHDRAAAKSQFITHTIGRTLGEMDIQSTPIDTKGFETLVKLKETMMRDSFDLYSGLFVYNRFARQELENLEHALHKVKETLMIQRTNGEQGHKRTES
Description: ADH and PDH assay: steady-state kinetics and Tyr inhibition, GmPDH1 N222D. The conditions noted are these: 0.5 mM NADP^+, pH 7.6, 37° C. The format is biochemical, Glycine max (soybean). On the procedure:
as §1, §2

Experiment [8] can be described thus: ADH assay of microbial TyrA enzymes (Example 2). It counts as biochemical. The settings on record: ADH activity, NADP+ versus NAD+, 0.8 mM. On the procedure: as §3
Experiment [9] in a line: PDH assay of microbial TyrA enzymes (Example 2). The format is biochemical. The settings on record: 0.8 mM arogenate or prephenate, 0.8 mM cofactor. On the procedure: as §3
The conditions of experiment [10]: arogenate versus prephenate, from references 29, 34; cited from earlier work.

T4 sequence (I1M7P5 1-266 D218N): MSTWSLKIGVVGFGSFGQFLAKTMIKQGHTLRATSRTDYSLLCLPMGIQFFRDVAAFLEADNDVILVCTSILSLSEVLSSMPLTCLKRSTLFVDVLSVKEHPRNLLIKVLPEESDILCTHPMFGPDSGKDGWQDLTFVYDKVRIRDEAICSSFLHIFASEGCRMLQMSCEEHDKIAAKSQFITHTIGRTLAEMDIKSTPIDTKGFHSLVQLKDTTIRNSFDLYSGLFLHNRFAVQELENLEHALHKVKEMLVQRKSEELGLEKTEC

With `N[C@@H](CC1(C(=O)O)C=CC(O)C=C1)C(=O)O` (stereo partly shown) [arogenate], the “fold lower Km” value in experiment [1] came out at 3 fold. The “fold more efficient (preference) with arogenate over prephenate” value in [2] is ~6,200 fold and 6,190 fold. Besides, the “fold higher Km than that of wild-type for prephenate” value in experiment [3] amounted to 10 fold. Moreover, the “fold higher catalytic efficiency with arogenate than with prephenate” value in [3] was “roughly 2 fold”. Also, the catalytic constant (kcat) in experiment [3] (NADP+ cofactor, pH 7.6) was 0.704 ± 0.06 s⁻¹; in [4] (0.5 mM NADP^+, pH 7.6, 37° C.), 3.2 ± 0.1 s⁻¹; in experiment [5] it was 27.7 s⁻¹; in experiment [7], 27.8 s⁻¹. Besides, the specificity constant (kcat/Km) in [3] (NADP+ cofactor, pH 7.6) is 200 M⁻¹ s⁻¹ and 213 ± 10 M⁻¹ s⁻¹; in experiment [4] (0.5 mM NADP^+, pH 7.6, 37° C.), 11,430 M^−1 s^−1; in experiment [4] (FIG. 7A, with NADP^+), 11.6 mM⁻¹ s⁻¹. Further, the Km in experiment [3] (NADP+ cofactor, pH 7.6, read-out: Km) is 3.3 mM and 3.29 mM; in experiment [4] (0.5 mM NADP^+, pH 7.6, 37° C.), 0.28 ± 0.03 mM. In addition, in [6], the “fold reduction of kcat/Km for ADH” value was ~6 fold.

B1: SsTyrA: TyrA from Sediminispirochaeta smaragdinae DSM 11293 (spirochaetes), recombinant (protein)
chain: MVEHTVGIYGLGRFGSFWAKSLAASGLKVIGYNRSKRALPEGVVSGSETEVLSCNTLFYCVAISSFEEVLSRTAAKIGKHTLVFDTCSVKVEPVRTMERLLPQGCTFAGSHPMFGPDSASEGMDGLPMVLCPGRDDEGKVDFWRHHFSKMGLRVIEITADRHDKEAAYTQGITHVVGRILGELDLHESEIATSGYKRLLQVREQTCNDPLQLFIDLQRYNPYTHGMRMELTSALEQIMTLFAQADLPPDRP
modifications: S. smaragdinae; misc_feature (1)..(251): S. smaragdinae TyrA SsTyrA
notes: TyrA from Sediminispirochaeta smaragdinae DSM 11293 (spirochaetes), recombinant
For the molecule B1, the “cofactor preference (in words)” value in [8] is reported as “slight preference for NAD+”. Further, in [9], the “ADH and PDH activity (in words)” value was “showed ADH activity; also recorded: PDH activity was not detectable”.

B2: AaPDH: prephenate dehydrogenase from Aquifex aeolicus, PDB 3GGG (protein)
chain: MQNVLIVGVGFMGGSFAKSLRRSGFKGKIYGYDINPESISKAVDLGIIDEGTTSIAKVEDFSPDFVMLSSPVRTFREIAKKLSYILSEDATVTDQGSVKGKLVYDLENILGKRFVGGHPIAGTEKSGVEYSLDNLYEGKKVILTPTKKTDKKRLKLVKRVWEDVGGVVEYMSPELHDYVFGVVSHLPHAVAFALVDTLIHMSTPEVDLFKYPGGGFKDFTRIAKSDPIMWRDIFLENKENVMKAIEGFEKSLNHLKELIVREAEEELVEYLKEVKIKRMEI
modifications: A. aeolicus; misc_feature (1)..(281): A.aeolicus AaPDH
notes: prephenate dehydrogenase from Aquifex aeolicus, PDB 3GGG
Regarding B2, the “substrate specificity (in words)” value in [10] was “prefers prephenate”.

B3: OiTyrA: TyrA from Ochrobactrum intermedium LMG 3301 (α-proteobacteria), E. coli cell lysate (protein)
chain: MRPLRGQSMSRDRNQHTKIGIIGFGAFGQLIARHLNPYFRLYAYDPAADLEQTALMHGVALASVEQVAACDIVILATPVATLESVVDKIAPHLCPGALVLDVGSVKVGPADIMRRGLPAHVDIVATHPLFGPQSARHGIAGLKIAVCPVRGTRFHRVAAFLKKHLSLNVIVTTPEDHDREAAMVQGLTHLIARVLVQMEPLPTRMTTKSFDLLMQAVSMVRHDAPEVFQAIEHANPYAPQVRRHFFALADQINEELARVQPMAAREEAA
modifications: O. intermedium; misc_feature (1)..(269): O. intermedium TyrA OiTyrA
notes: TyrA from Ochrobactrum intermedium LMG 3301 (α-proteobacteria), E. coli cell lysate
Consider B3, for which, in experiment [8], the “cofactor preference (in words)” value was “strongly preferred NAD+”. Besides, the “ADH and PDH activity (in words)” value in [9] was “had ADH but not PDH activity”.

The kcat is the maximal rate divided by the concentration of active sites. The kcat/Km is the turnover number divided by the Michaelis constant. A word on the Km: it is the substrate concentration at which the rate is half of its maximum.
